Test results from PubChem BioAssay AID254 (DTP/NCI, 2004).
“And” between values parts separate entries of the source, which are not always exact repeats. Identical values can stand only once. Toxic doses and inconclusive results are not listed.

System: L1210 leukemia iv in BDF1 mice, survival T/C
Assay: NCI In Vivo Anticancer Drug Screen. Data for tumor model L1210 Leukemia (intravenous) in B6D2F1 (BDF1) mice
Conditions: higher = longer survival
Method: The antitumor activity of compounds was measured in mice bearing transplantable tumors. Survival or tumor size were measured and the results are expressed as the measurement made in the treated group (T) divided by the measurement made in the vehicle treated control group (C). The tumor model used in this assay is L1210 Leukemia (intravenous) in B6D2F1 (BDF1) mice

CC(CN1CC(=O)NC(=O)C1)N1CC(=O)NC(=O)C1 (configuration not stated)
T/C (endpoint: mean survival time, dose: 108.0 mg/kg/injection, schedule: Q04DX003 (ip), vehicle: Klucel (hydroxypropylcellulose) (HPC)): 165 % of control
T/C (endpoint: mean survival time, dose: 180.0 mg/kg/injection, schedule: Q04DX003 (ip), vehicle: Klucel (hydroxypropylcellulose) (HPC)): 176 % of control
T/C (endpoint: mean survival time, dose: 300.0 mg/kg/injection, schedule: Q04DX003 (ip), vehicle: Klucel (hydroxypropylcellulose) (HPC)): 191 % of control

COc1cc([C@@H]2c3cc4c(cc3[C@@H](OC3OC5COC(C)OC5C(O)C3O)[C@H]3COC(=O)[C@H]23)OCO4)cc(OC)c1O (some centres not stated)
T/C (endpoint: mean survival time, dose: 12.0 mg/kg/injection, schedule: Q04DX003 (ip), vehicle: saline): 117 % of control
T/C (endpoint: mean survival time, dose: 40.0 mg/kg/injection, schedule: Q04DX003 (ip), vehicle: saline): 297 % of control
T/C (endpoint: mean survival time, dose: 60.0 mg/kg/injection, schedule: Q04DX003 (ip), vehicle: saline): 447 % of control

CN(C)/N=N/c1nc[nH]c1C(N)=O
T/C (endpoint: mean survival time, dose: 42.0 mg/kg/injection, schedule: Q01DX001 (ip), vehicle: carboxymethylcellulose (CMC)): 85 % of control and 86 % of control
T/C (endpoint: mean survival time, dose: 83.0 mg/kg/injection, schedule: Q01DX001 (ip), vehicle: carboxymethylcellulose (CMC)): 97 % of control and 98 % of control
T/C (endpoint: mean survival time, dose: 170.0 mg/kg/injection, schedule: Q01DX001 (ip), vehicle: carboxymethylcellulose (CMC)): 114 % of control and 115 % of control
T/C (endpoint: mean survival time, dose: 180.0 mg/kg/injection, schedule: Q01DX001 (ip), vehicle: carboxymethylcellulose (CMC)): 113 % of control
T/C (endpoint: mean survival time, dose: 600.0 mg/kg/injection, schedule: Q01DX001 (ip), vehicle: carboxymethylcellulose (CMC)): 161 % of control
T/C (endpoint: mean survival time, dose: 900.0 mg/kg/injection, schedule: Q01DX001 (ip), vehicle: carboxymethylcellulose (CMC)): 193 % of control
T/C (endpoint: mean survival time, dose: 1012.0 mg/kg/injection, schedule: Q01DX001 (ip), vehicle: carboxymethylcellulose (CMC)): 183 % of control and 184 % of control
T/C (endpoint: mean survival time, dose: 1350.0 mg/kg/injection, schedule: Q01DX001 (ip), vehicle: carboxymethylcellulose (CMC)): 113 % of control

Nc1nc(=S)c2[nH]cnc2[nH]1
T/C (endpoint: mean survival time, dose: 0.4 mg/kg/injection, schedule: Q01DX008 (ip), vehicle: alkali diluted with saline): 107 % of control
T/C (endpoint: mean survival time, dose: 0.4 mg/kg/injection, schedule: Q06HX008 (ip), vehicle: alkali diluted with saline): 117 % of control
T/C (endpoint: mean survival time, dose: 0.4 mg/kg/injection, schedule: Q12HX008 (ip), vehicle: alkali diluted with saline): 114 % of control
T/C (endpoint: mean survival time, dose: 0.6 mg/kg/injection, schedule: Q01DX008 (ip), vehicle: alkali diluted with saline): 114 % of control
T/C (endpoint: mean survival time, dose: 0.6 mg/kg/injection, schedule: Q01HX008 (ip), vehicle: alkali diluted with saline): 152 % of control
T/C (endpoint: mean survival time, dose: 4.8 mg/kg/injection, schedule: Q01DX001 (ip), vehicle: alkali diluted with saline): 156 % of control
T/C (endpoint: mean survival time, dose: 115.0 mg/kg/injection, schedule: Q01DX001 (ip), vehicle: alkali diluted with saline): 195 % of control
T/C (endpoint: median survival time, dose: 20.0 mg/kg/injection, schedule: Q04DX002 (ip), vehicle: alkali diluted with saline): 206 % of control and 227 % of control
T/C (endpoint: median survival time, dose: 25.0 mg/kg/injection, schedule: Q04DX002 (ip), vehicle: alkali diluted with saline): 198 % of control and 231 % of control

O=NN(CCCl)C(=O)NC1CS(=O)(=O)CS(=O)(=O)C1
T/C (endpoint: mean survival time, dose: 8.0 mg/kg/injection, schedule: Q04DX004 (ip), vehicle: saline with Tween-80): 177 % of control
T/C (endpoint: mean survival time, dose: 12.0 mg/kg/injection, schedule: Q04DX004 (ip), vehicle: saline with Tween-80): 529 % of control
T/C (endpoint: mean survival time, dose: 18.0 mg/kg/injection, schedule: Q04DX004 (ip), vehicle: saline with Tween-80): 687 % of control

Nc1n[nH]c(N)n1
T/C (endpoint: mean survival time, dose: 100.0 mg/kg/injection, schedule: Q03HX024 (ip), vehicle: saline): 104 % of control and 91 % of control and 100 % of control
T/C (endpoint: mean survival time, dose: 150.0 mg/kg/injection, schedule: Q03HX024 (ip), vehicle: saline): 103 % of control (2×) and 104 % of control
T/C (endpoint: mean survival time, dose: 225.0 mg/kg/injection, schedule: Q03HX024 (ip), vehicle: saline): 112 % of control and 116 % of control
T/C (endpoint: mean survival time, dose: 335.0 mg/kg/injection, schedule: Q03HX024 (ip), vehicle: saline): 153 % of control and 159 % of control (2×)
T/C (endpoint: mean survival time, dose: 500.0 mg/kg/injection, schedule: Q03HX024 (ip), vehicle: saline): 201 % of control and 215 % of control and 257 % of control
T/C (endpoint: mean survival time, dose: 4000.0 mg/kg/injection, schedule: Q01DX001 (ip), vehicle: saline): 120 % of control
